What all share (format): cell-based, human
In test [1] the test system is HCT116 parental cell line. Description: Label-free RWG biosensor DMR assay. Particulars: HCT116 parental. An excerpt:
(§1) EPIC® beta version wavelength interrogation system (Corning Inc., NY) was used for whole cell sensing. This system consists of a temperature-control unit, an optical detection unit, and an on-board liquid handling unit with robotics. The detection unit is centered on integrated fiber optics, and enables kinetic measures of cellular responses with a time interval of ˜15 sec. Also EPIC® commercial systems were used, with a liquid handler accessory attached to EPIC® reader system. Also, an Epic® RWG imager can be used.
(§2) The resonant waveguide grating (RWG) biosensor is capable of detecting minute changes in local index of refraction near the sensor surface and the waveguide thin film having gratings provide a cell culture surface. Since the local index of refraction within a cell is a function of density and its distribution of biomass (e.g., proteins, molecular complexes), the biosensor exploits its evanescent wave to non-invasively detect ligand-induced Dynamic Mass Redistribution (DMR) in native cells. When a cell is stimulated, it responds. That response is a redistribution of biomass in the cell. Upon stimulation, proteins, protein complexes, and/or organelles in the cells move. The evanescent wave extends into the cells and exponentially decays over distance, leading to a characteristic sensing depth of ˜150 nm. Any optical response mediated through receptor activation only represents an average over the portion of the cell that the evanescent wave is sampling. The aggregation of many cellular events downstream to the receptor activation leads to a DMR signal having characteristic kinetics and amplitudes.
(§3) All assays were carried out at a controlled temperature (28° C.). At least two independent sets of experiments, each with at least three replicates, were performed.

Test [2] concerns HCT116-PTEN Null cell line. The experiment in a line: Label-free RWG biosensor DMR assay.
Text: as §1, §2, §3

Test [3] relates to Akt, ERK1/2, EGFR, c-Src, STAT3 phosphorylation in PTEN null cells. Description: Western blot analysis of key signaling proteins in GPCR signaling. Conditions: serum-starved, 5 min treatment; for Akt activation (phospho-Akt): SFLLR, SLIGKV 1 μM, S1P, LPA 2.5 μM.
Test [4] concerns Akt, ERK1/2, EGFR, c-Src, STAT3 phosphorylation in HCT116 parental cells. Described as above. Conditions: serum-starved, 5 min treatment; for Akt activation (phospho-Akt): SFLLR, SLIGKV 1 μM, S1P, LPA 2.5 μM.
The next test concerns HCT116 PTEN null cells. The experiment in a line: Calcium flux assay (FLUO-4, FDSS/FLIPR). Conditions: small molecule agonists 10 micromolar, peptide and lipid agonists 1 micromolar. An excerpt: (§4) To screen endogenous receptors and their coupled signaling pathways, we first assembled a GPCR agonist focused library (Table 1). The library consists of 120 GPCR agonists covering over 150 known GPCRs, based on their known pharmacology including polypharmacology. For small molecule chemical agonists, the dose used was 10 micromolar. For peptide agonists, the dose used was 1 micromolar. For lipid agonists, the dose used was also 1 micromolar. For both peptides and lipids, these agonists were suspended in a solution containing 0.05% bovine […] to increase their stability.
(In general: Calcium flux is commonly read through the fluorescence of an indicator in the cells.)

In a further test the test system is HCT116 parental cells. The experiment in a line: Calcium flux assay (FLUO-4, FDSS/FLIPR). Particulars: small molecule agonists 10 micromolar, peptide and lipid agonists 1 micromolar.
Text: as §4

Ends that are not written are not given here.

As for SFLLR-amide, the “agonist-induced DMR signal” value in test [1] (untreated, 10 μM agonist (EGF, IGF1 1 μM)) was “robust DMR signal”; in test [2] (HCT116-PTEN Null, untreated, 10 μM agonist (EGF, IGF1 1 μM)), “robust DMR signal”. Besides, the “agonist DMR in PTEN deleted cell line compared to parental cell line (sensitivity to PTEN deletion)” value in test [2] (10 μM agonist (EGF, IGF1 1 μM)) is “distinct characteristics”. Moreover, the “potency to trigger DMR, PTEN null vs parental” value in test [2] (dose response, early P-DMR or late P-DMR (50 min poststimulation) amplitudes) was “almost identical”. In test [2] (dose response, early or late P-DMR event), the “efficacy to trigger DMR, PTEN null vs parental” value is listed as “higher efficacy”. In addition, the “level of phosphorylated STAT3” value in test [3] and in test [4] was “significantly increased” each time. For the same molecule, the “Akt activation (phospho-Akt)” value in test [3] and in test [4] was “did not activate” in each case. For the same molecule, the “Ca^2+ mobilization (fold increase in fluorescence, FLIPR)” value with HCT116 PTEN null cells and in the test on HCT116 parental cells was “robust Ca^2+ mobilization” throughout.

In the case of `CCCCCCCCCCCCC/C=C/[C@@H](O)[C@@H](N)COP(=O)(O)O` [S1P, sphingosine-1-phosphate], in test [3], the EGFR activation entry is “did not activate” and the “Akt activation (phospho-Akt)” value is recorded as “did not activate”. Further, the “Akt activation (phospho-Akt)” value in test [4] is reported as “did not activate”.

Consider `Nc1ncnc2c1ncn2[C@@H]1O[C@H](COP(=O)(O)OP(=O)(O)OP(=O)(O)O)[C@@H](O)[C@H]1O` [ATP], for which the “receptor / signaling pathway activated (pathway deconvolution of DMR with toxins)” value is “activates multiple GPCRs and mediates signaling via multiple G proteins” in test [1] (10 μM agonist); “activates multiple GPCRs and mediates signaling via multiple G proteins” in test [2] (HCT116-PTEN Null, 10 μM agonist). Moreover, the “agonist DMR in PTEN deleted cell line compared to parental cell line (sensitivity to PTEN deletion)” value in test [2] (10 μM agonist (EGF, IGF1 1 μM)) is “dramatically different”. Also, the “Ca^2+ mobilization (fold increase in fluorescence, FLIPR)” value with HCT116 PTEN null cells and in the test on HCT116 parental cells was “robust Ca^2+ mobilization” each time.

Take SLIGKV-NH2: the “Akt activation (phospho-Akt)” value in test [3] and in test [4] was “did not activate” each time. The “Ca^2+ mobilization (fold increase in fluorescence, FLIPR)” value in the test on HCT116 PTEN null cells and with HCT116 parental cells was “robust Ca^2+ mobilization” throughout.

For the molecule `O=c1ccn([C@@H]2O[C@H](COP(=O)(O)OP(=O)(O)O)[C@@H](O)[C@H]2O)c(=O)[nH]1` [UDP], the “Ca^2+ mobilization (fold increase in fluorescence, FLIPR)” value in the test with HCT116 PTEN null cells and in the test with HCT116 parental cells was “robust Ca^2+ mobilization” in each case.

Source of the values: US20130210057A1, “USE OF LABEL-FREE BIOSENSORS TO UNDERSTAND AND IDENTIFY TREATMENT FOR CANCER” (CORNING INCORPORATED, priority 2012, published 2013).
